Where a SMILES comes first, the peptide text is derived from it. Primed or numbered codes have the meaning given here. Where no end group is shown, it is not given here. [ ]: non-standard residue; d: D form. The star is where a group is joined. FITC = O=C1OC2(c3ccc(O)cc3Oc3cc(O)ccc32)c2ccc(NC(=S)*)cc21; FITC′ = fluorescein isothiocyanate label; PEG = not defined here

In one data set the test system is collagen agarose beads. The data set can be described thus: Collagen-agarose column chromatography of mAb-aptamers with fluorescent Rabbit-Anti-Human Abs. In kind it is binding. The following applies: FIG. 7B.
Data set [1] is described as follows: Serum stability (resistance to proteolysis) of mAb-aptamers. The following applies: FIG. 7C. In kind it is in vitro ADME. The source says: The serum stability (resistance to proteolysis) of mAb-Aptamer 1, mAb-Aptamer 2 and mAb-Aptamer 4 were further analyzed.
For data set [2], the system named is Collagen-Agarose beads. The data set can be described thus: Collagen-agarose chromatography of RNA-Apts with Oregon Green 488 labeled oligonucleotides. It counts as binding. The conditions noted are these: for retention of labeled oligonucleotides on collagen-agarose mini-columns: FIG. 10C; for depletion of fluorescently labeled oligonucleotides from the column eluates: increasing amounts of RNA-Apt, FIG. 10B. Here is the method: Short oligonucleotides labeled with Oregon Green 488 were incubated with increasing amounts of RNA-Apt 07 or RNA-Apt 08 in PBS for 30 min at 30° C. and then applied to the chromatography column of collagen-agarose beads, followed by successive washes with (1) PBS, (2) PBS/PBS, Tween-20, BSA. The retention to the column was documented by use of a blue-light transilluminator with an amber filter; quantitative data was obtained with a Quantus fluorometer.

Data set [3] has as its system Locally Recurrent or Metastatic Breast Cancer. The conditions noted are these: Phase III, once per week; cited from earlier work.
Data set [4] deals with subcutaneous human pancreatic cancer xenografts.
Data set [5] has the same test system. The conditions noted are these: paclitaxel without aptamer; cited from earlier work.
For another data set, the system named is subcutaneous tumors. The data set can be described thus: Tumor targeting of FITC-labeled collagen-binding construct after intravenous infusion. The following applies: intravenous infusion into the tail vein of nude mice; FIGS. 3C-3D. In kind it is in vivo.
For data set [6], the system named is Collagen-Agarose beads. The data set can be described thus: Collagen-agarose column chromatography of FITC-labeled collagen-binding constructs. The conditions noted are these: increasing amounts applied to Collagen-Agarose beads, in vitro; FIG. 3B. An excerpt: Three fluorescein isothiocyanate (FITC)-labeled collagen-binding constructs were generated and tested. Construct 1 (ac-L1/XC-BD1/L3/FITC) had the sequence of Ac-RRGVHVGWREPSFMALSMPHGGSGK-(FITC) (SEQ ID NO: 45); Construct 2(ac-L1/XC-BD2/L3/FITC) had the sequence of Ac-RRGVHVGWREPGRMELNMPHGGSGK-(FITC) (SEQ ID NO: 46); Construct 3 (ac-L2/XC-BD2/L3/FITC) had the sequence of Ac-RRGVRVAWREPGRMELNMPHGGSGK-(FITC) (SEQ ID NO: 47). […] Increasing amounts of these constructs were applied to the chromatography columns of Collagen-Agarose beads, followed by successive washes with (1) PBS, (2) PBS/PBS, Tween-20, BSA. The retention of the constructs to the column was documented by use of a blue-light transilluminator with an amber filter; quantitative data was obtained with a Quantus fluorometer.

Data set [7] can be described thus: Serum stability (resistance to proteolysis) of Tx-Apts. The conditions noted are these: FIG. 4C. In kind it is in vitro ADME.

As to “(PEG)-[C-A-R-R-G-V-H-V-G]-W-R-E-P-G-R-M-E-L-N-M-P-H-[G-G-S-G-G]-H-W-R-G-W-V-A-[G-G-S-G-G]-H-W-R-G-W-V-A-p-t ({PEG}-CARRGVHVGWREPGRMELNMPHGGSGGHWRGWVAGGSGGHWRGWVA[dP][dT]; reading uncertain; also: printed as (PEG)-[C-A-R-R-G-V-H-V-G]-W-R-E-P-G-R-M-E-L-N-M-P-H-[G-G-S-G-G]-H-W-R-G-W-V-A-[G-G-S-G-G]-H-W-R-G-W-V-A-p-t) [mAb-Aptamer 4]”, the “binding of antibodies to the collagen beads” value in the data set with collagen agarose beads was “higher binding”. In [1], the “serum stability (resistance to proteolysis)” value is on record as “greatest serum stability”.
With “RRGVHVGWREPSFMALSMPHGGRRRRRRRRR [RNA-Apt 08]”, in the data set on Collagen-Agarose beads [2], the “retention of labeled oligonucleotides on collagen-agarose mini-columns” value is given as “retaining the labeled oligonucleotides on the collagen-agarose mini-columns” and the “depletion of fluorescently labeled oligonucleotides from the column eluates” value is “depleted fluorescently labeled-oligonucleotides from the eluates”.
Consider “r-r-GVHVGWREPGRMELNMPHGGSGGHWRGWVAGGSGGHWRGWV-a-a ([dR][dR]GVHVGWREPGRMELNMPHGGSGGHWRGWVAGGSGGHWRGWV[dA][dA]) [mAb-Aptamer 2]”, for which, in the data set on collagen agarose beads, the “binding of antibodies to the collagen beads” value is reported as “higher binding”.
Regarding `CC(=O)O[C@H]1C(=O)[C@@]2(C)[C@H]([C@H](OC(=O)c3ccccc3)[C@]3(O)C[C@H](OC(=O)[C@H](O)[C@@H](NC(=O)c4ccccc4)c4ccccc4)C(C)=C1C3(C)C)[C@]1(OC(C)=O)CO[C@@H]1C[C@@H]2O` [paclitaxel], in data set [3], the “clinical performance compared with Abraxane” value is “just as good or better than Abraxane” and the “toxicity compared with Abraxane” value was “significantly less toxicity”. Further, in data set [4] (targeted paclitaxel treated mice), the “active dose as fraction of the low metronomic doses commonly used” value was 1/10. The “active dose as fraction of the normal effective dose of paclitaxel in mice” value in data set [4] (used with Taxol-aptamer) was 1/50. For the same molecule, the “dose at which paclitaxel exhibited anti-angiogenic activity” value in data set [4] (used with Taxol-aptamer, FIG. 6C) turned out to be 0.2 mg/kg. The “normal effective dose of paclitaxel in mice” value in data set [5] is 10 mg/kg.
On to `CSCC[C@H](NC(=O)[C@H](CCCNC(=N)N)NC(=O)CNC(=O)[C@@H]1CCCN1C(=O)[C@H](CCC(=O)O)NC(=O)[C@H](CCCNC(=N)N)NC(=O)[C@H](Cc1c[nH]c2ccccc12)NC(=O)CNC(=O)[C@@H](NC(=O)[C@H](Cc1c[nH]cn1)NC(=O)[C@@H](NC(=O)CNC(=O)[C@H](CCCNC(=N)N)NC(=O)[C@H](CCCNC(=N)N)NC(C)=O)C(C)C)C(C)C)C(=O)N[C@@H](CCC(=O)O)C(=O)N[C@@H](CC(C)C)C(=O)N[C@@H](CC(N)=O)C(=O)N[C@@H](CCSC)C(=O)N1CCC[C@H]1C(=O)N[C@@H](Cc1c[nH]cn1)C(=O)NCC(=O)NCC(=O)N[C@@H](CO)C(=O)NCC(=O)N[C@@H](CCCCNC(=S)Nc1ccc2c(c1)C(=O)OC21c2ccc(O)cc2Oc2cc(O)ccc21)C(=O)O` [Construct 2, Ac-RRGVHVGWREPGRMELNMPHGGSGK-(FITC)] (Ac-RRGVHVGWREPGRMELNMPHGGSGK(FITC)-OH), for which the “targeting to subcutaneous tumors (fluorescence)” value in the data set with subcutaneous tumors is “efficiently targeted to subcutaneous tumors”.
With “Ac-RRGVHVGWREPSFMALSMPHGGSGK-(FITC) (Ac-RRGVHVGWREPSFMALSMPHGGSGK(FITC′)) [Construct 1]”, the “binding to collagen (retention of the constructs to the column)” value in the data set with Collagen-Agarose beads [6] is on record as “bound to collagen in a dose dependent manner”.
On to “RRRRRRRRRRRGVHVGWREPSFMALSMPHGG [RNA-Apt 07]”, for which, in the data set with Collagen-Agarose beads [2], the “retention of labeled oligonucleotides on collagen-agarose mini-columns” value is recorded as “retaining the labeled oligonucleotides on the collagen-agarose mini-columns” and the “depletion of fluorescently labeled oligonucleotides from the column eluates” value is “depleted fluorescently labeled-oligonucleotides from the eluates”.
“Ac-[dR][dR]GVHVGWREPGRMELNMPHGGSGRGVGIMKACGRTRHTVR[dM]G (N-terminus assumed) [Tx-Apt2, Ac-[r-r-G-V-H-V-G]-W-R-E-P-G-R-M-E-L-N-M-P-H-[G-G-S-G]-R-G-V-G-I-M-K-A-C-G-R-T-R-H-T-V-R-m-G]”: in data set [7], the “serum stability (resistance to proteolysis) over time” value was “most stable”.
